# Measured values as given in PMC7316778 (Nature Communications, 2020).
# Several values for one entry are separate records, joined by “and”; a condition that tells them apart may be missing. Equal entries are not always repeated. Where two headings read alike, the source gives them in different places.
# Tests used:
# CDK9/cyclin T1 = CDK9/cyclin T1 (Homo sapiens, UniProt P50750); test: SelectScreen kinase assay
# Procedure: (§1) Selectivity profiling assays were performed by the Invitrogen SelectScreen™ Services. […] The concentration of ATP was selected to be equal to the KM, unless indicated otherwise.
# CSF1R (FMS) = CSF1R (FMS) (Homo sapiens, UniProt P07333); test: SelectScreen kinase assay
# Procedure: as §1
# GRK6 = GRK6 (Homo sapiens, UniProt P43250); test: SelectScreen kinase assay
# Procedure: as §1
# JAK2 = JAK2 (Homo sapiens, UniProt O60674); test: SelectScreen kinase assay; details: 1 μM WEL028, 1 h preincubation
# Procedure: as §1
# LCK = LCK (Homo sapiens, UniProt P06239); test: SelectScreen kinase assay
# Procedure: as §1
# LRRK2 FL = LRRK2 FL (Homo sapiens, UniProt Q5S007); test: SelectScreen kinase assay
# Procedure: as §1
# MAP3K19 (YSK4) = MAP3K19 (YSK4) (Homo sapiens, UniProt Q56UN5); test: SelectScreen kinase assay
# Procedure: as §1
# MAP3K8 (COT) [1] = molecular target: MAP3K8 (COT) (Homo sapiens, UniProt P41279); test: SelectScreen kinase assay
# Procedure: as §1
# MAP3K8 (COT) [2] = test: SelectScreen kinase assay; details: IC50 on that kinase divided by IC50 on FES^S700C
# Procedure: as §1
# MAP4K4 (HGK) = MAP4K4 (HGK) (Homo sapiens, UniProt O95819); test: SelectScreen kinase assay; details: 1 h, 1 μM WEL028, 1 h preincubation
# Procedure: as §1
# MUSK = molecular target: T1, MUSK (Homo sapiens, UniProt O15146); test: SelectScreen kinase assay
# T1 sequence (O15146 24-869): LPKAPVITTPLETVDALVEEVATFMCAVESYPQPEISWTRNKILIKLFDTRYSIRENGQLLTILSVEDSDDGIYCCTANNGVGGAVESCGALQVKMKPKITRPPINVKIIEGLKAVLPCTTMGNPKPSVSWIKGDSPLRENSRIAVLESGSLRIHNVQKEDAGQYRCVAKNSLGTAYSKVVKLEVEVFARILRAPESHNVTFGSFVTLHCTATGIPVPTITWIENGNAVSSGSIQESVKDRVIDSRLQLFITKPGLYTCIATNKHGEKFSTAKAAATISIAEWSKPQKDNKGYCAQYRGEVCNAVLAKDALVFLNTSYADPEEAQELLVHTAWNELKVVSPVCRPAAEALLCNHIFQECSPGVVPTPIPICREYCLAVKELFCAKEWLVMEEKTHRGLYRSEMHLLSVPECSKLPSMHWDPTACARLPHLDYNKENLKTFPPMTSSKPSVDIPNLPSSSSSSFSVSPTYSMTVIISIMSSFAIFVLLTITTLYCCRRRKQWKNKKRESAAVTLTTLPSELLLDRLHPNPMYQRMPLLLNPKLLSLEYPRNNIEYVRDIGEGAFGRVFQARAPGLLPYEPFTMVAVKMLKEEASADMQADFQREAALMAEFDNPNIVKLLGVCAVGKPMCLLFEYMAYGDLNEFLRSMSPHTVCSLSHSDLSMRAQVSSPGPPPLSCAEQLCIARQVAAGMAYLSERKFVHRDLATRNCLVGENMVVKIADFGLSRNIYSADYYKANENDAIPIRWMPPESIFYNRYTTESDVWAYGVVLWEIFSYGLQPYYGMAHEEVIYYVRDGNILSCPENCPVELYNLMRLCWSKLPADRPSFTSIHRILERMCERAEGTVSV
# Procedure: as §1
# PIK3C2A (PI3K-C2 alpha) = PIK3C2A (PI3K-C2 alpha) (Homo sapiens, UniProt O00443); test: SelectScreen kinase assay; details: 1 h, 1 μM WEL028, 1 h preincubation
# Procedure: as §1
# PKN2 (PRK2) = PKN2 (PRK2) (Homo sapiens, UniProt Q16513); test: SelectScreen kinase assay
# Procedure: as §1
# PRKACA (PKA) = PRKACA (PKA) (Homo sapiens, UniProt P17612); test: SelectScreen kinase assay
# Procedure: as §1
# RPS6KB1 (p70S6K) = RPS6KB1 (p70S6K) (Homo sapiens, UniProt P23443); test: SelectScreen kinase assay
# Procedure: as §1
# WEE1 = WEE1 (Homo sapiens, UniProt P30291); test: SelectScreen kinase assay
# Procedure: as §1
# ~150 kDa protein = ~150 kDa protein (Homo sapiens, UniProt O14976); test: Gel-based target engagement in HL-60 neutrophils; details: HL-60, read-out: Inhibition of off-target labeling
# Procedure: Data represent means ± SEM.
# The term in situ is used to designate experiments in which live cell cultures are treated with inhibitor, whereas the term in vitro refers to experiments in which the inhibitor is incubated with cell lysates. Compounds were diluted in growth medium from a 1000x concentrated stock solution in DMSO. […] After 48 h, cells were treated with compound for 1 h. Cells were collected by suspension in PBS and centrifuged (1000g, 5 min, rt). Pellets were flash-frozen in liquid nitrogen and stored at −80 °C until use. For in situ treatment post-differentiation, HL-60 cells were differentiated as described above and incubated with compound for 1 h unless specified otherwise. Cells were collected by suspension for non-adherent cells and trypsinization for adherent cells. After collection, cells were centrifuged (200g, 5 min, rt) and washed in equal volume of PBS (1000g, 5 min, rt). Cell pellets were flash-frozen in liquid nitrogen and stored at −80 °C until use.
# FES^S700C = FES^S700C (Homo sapiens, UniProt P07332, S700C); test: Inhibitor washout by dialysis; format: binding; parameters: expressed in transfected cells; host or cells: HEK293T (transient, PEI)
# [3] = 1 h, 1 μM WEL028, 1 h preincubation
# Chain of CSF1R (FMS) (P07333 20-972): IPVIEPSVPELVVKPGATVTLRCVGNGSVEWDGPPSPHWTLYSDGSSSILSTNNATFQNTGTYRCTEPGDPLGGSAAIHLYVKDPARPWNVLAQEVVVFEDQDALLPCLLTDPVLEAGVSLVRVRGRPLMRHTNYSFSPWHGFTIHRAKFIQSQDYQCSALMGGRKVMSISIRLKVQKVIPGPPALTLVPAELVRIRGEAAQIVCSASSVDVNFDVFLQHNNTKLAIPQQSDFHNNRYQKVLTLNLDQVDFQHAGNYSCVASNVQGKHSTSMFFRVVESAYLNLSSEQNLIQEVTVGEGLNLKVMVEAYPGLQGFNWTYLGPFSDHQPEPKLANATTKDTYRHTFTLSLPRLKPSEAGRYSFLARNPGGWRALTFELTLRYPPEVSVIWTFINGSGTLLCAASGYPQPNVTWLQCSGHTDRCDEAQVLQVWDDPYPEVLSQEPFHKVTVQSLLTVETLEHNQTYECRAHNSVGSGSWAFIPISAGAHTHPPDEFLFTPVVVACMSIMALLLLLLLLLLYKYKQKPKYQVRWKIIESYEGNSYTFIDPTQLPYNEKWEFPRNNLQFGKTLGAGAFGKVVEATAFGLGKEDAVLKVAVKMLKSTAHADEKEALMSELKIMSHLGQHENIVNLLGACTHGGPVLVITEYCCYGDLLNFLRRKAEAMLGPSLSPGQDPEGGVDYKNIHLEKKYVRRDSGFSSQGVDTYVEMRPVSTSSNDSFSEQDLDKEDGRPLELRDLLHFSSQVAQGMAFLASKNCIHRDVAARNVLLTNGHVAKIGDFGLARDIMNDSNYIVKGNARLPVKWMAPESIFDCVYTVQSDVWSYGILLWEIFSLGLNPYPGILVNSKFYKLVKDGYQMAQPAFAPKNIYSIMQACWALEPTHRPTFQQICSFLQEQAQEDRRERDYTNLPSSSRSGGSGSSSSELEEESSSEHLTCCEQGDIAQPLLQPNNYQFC
# Chain of FES^S700C (P07332 whole entry S700C): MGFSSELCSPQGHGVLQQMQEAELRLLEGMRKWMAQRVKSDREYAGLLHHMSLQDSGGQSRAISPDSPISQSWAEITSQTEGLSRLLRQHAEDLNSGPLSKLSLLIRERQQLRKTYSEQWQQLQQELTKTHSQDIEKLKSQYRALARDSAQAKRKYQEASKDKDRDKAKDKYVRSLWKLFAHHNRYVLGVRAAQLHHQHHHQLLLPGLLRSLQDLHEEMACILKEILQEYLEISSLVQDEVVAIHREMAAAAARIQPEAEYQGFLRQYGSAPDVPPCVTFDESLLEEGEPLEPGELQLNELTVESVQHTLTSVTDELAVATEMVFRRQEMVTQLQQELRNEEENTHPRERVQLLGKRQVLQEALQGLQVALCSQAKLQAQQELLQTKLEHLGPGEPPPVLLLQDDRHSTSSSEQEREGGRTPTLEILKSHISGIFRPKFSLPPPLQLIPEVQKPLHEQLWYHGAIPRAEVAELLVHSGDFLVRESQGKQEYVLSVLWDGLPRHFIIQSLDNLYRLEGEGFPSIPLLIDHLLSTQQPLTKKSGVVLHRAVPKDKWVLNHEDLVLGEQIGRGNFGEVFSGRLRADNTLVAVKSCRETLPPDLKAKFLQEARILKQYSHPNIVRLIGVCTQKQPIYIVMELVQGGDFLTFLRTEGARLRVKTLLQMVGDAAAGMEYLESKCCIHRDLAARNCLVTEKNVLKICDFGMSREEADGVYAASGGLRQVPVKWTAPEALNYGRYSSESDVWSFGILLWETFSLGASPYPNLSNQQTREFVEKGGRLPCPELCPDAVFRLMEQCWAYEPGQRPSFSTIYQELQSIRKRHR
# Chain of MAP3K19 (YSK4) (Q56UN5 whole entry): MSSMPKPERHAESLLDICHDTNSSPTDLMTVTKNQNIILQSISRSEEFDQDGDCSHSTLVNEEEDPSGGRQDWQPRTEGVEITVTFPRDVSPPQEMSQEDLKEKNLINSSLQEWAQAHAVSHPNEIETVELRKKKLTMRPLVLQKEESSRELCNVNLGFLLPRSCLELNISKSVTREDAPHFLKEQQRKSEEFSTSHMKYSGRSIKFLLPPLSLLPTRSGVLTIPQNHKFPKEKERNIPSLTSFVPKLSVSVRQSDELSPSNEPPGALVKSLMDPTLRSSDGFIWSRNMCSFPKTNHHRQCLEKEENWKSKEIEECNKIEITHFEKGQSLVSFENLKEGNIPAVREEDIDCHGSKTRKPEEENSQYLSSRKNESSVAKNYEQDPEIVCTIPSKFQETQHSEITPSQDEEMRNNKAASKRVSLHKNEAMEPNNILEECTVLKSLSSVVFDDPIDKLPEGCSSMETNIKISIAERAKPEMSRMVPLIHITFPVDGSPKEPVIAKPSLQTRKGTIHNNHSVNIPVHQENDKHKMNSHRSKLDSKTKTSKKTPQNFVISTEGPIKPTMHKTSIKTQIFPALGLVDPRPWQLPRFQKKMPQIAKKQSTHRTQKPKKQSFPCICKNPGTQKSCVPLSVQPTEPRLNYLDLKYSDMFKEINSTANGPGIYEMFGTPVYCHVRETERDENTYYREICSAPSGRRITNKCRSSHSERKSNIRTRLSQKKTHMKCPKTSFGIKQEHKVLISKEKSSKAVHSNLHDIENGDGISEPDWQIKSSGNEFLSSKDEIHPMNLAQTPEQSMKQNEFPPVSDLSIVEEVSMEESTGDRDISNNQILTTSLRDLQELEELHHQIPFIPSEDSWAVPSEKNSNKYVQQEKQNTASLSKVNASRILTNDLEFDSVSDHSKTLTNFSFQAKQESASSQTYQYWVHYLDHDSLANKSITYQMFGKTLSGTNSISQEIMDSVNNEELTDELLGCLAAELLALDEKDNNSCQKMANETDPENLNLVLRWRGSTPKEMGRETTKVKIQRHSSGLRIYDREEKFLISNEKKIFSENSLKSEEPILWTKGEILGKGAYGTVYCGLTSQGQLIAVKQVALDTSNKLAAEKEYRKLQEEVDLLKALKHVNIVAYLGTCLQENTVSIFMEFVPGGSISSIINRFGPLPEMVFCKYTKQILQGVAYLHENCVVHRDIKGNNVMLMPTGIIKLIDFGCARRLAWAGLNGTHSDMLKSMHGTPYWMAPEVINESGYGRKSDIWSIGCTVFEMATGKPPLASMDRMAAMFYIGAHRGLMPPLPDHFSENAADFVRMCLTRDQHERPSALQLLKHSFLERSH
# Chain of PKN2 (PRK2) (Q16513 whole entry): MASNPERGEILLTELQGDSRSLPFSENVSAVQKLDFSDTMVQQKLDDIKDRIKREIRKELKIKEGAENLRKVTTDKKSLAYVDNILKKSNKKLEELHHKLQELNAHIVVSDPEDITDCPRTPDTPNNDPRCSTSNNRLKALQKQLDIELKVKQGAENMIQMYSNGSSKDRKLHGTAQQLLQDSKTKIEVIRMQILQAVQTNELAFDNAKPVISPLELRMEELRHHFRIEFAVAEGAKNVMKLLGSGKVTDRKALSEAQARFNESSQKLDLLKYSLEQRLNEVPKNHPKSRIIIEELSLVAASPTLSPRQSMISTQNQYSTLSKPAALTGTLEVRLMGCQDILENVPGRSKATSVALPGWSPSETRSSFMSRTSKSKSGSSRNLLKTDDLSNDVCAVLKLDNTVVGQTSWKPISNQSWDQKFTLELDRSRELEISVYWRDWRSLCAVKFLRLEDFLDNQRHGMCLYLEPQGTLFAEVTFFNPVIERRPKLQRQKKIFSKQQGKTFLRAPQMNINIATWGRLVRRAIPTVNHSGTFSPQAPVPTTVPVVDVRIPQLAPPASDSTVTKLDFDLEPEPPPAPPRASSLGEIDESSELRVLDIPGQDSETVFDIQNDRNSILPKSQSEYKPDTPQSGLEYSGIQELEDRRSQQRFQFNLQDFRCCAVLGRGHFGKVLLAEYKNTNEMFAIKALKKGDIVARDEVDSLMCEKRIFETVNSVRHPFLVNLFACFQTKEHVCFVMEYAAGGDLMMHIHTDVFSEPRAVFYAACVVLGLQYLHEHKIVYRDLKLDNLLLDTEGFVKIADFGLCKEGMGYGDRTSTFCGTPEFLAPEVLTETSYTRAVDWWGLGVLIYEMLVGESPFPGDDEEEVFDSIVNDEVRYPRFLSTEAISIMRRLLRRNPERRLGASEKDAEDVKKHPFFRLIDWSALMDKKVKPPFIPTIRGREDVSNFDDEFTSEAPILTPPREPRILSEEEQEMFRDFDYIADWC
# Chain of MAP3K8 (COT) (Homo sapiens, UniProt P41279) (P41279 whole entry, species assumed): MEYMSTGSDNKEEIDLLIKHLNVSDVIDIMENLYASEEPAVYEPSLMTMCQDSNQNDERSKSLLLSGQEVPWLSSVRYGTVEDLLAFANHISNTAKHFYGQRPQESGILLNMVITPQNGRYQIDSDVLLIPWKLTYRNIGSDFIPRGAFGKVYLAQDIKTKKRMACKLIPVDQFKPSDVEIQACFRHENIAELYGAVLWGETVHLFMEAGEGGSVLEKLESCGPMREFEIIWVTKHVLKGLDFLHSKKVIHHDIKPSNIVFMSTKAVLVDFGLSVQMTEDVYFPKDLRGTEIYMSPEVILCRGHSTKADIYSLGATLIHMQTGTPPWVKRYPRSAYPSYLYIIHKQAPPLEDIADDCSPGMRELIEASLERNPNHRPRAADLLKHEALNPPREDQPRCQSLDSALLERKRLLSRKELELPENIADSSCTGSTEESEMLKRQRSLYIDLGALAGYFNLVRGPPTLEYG
# Chain of LCK (P06239 whole entry): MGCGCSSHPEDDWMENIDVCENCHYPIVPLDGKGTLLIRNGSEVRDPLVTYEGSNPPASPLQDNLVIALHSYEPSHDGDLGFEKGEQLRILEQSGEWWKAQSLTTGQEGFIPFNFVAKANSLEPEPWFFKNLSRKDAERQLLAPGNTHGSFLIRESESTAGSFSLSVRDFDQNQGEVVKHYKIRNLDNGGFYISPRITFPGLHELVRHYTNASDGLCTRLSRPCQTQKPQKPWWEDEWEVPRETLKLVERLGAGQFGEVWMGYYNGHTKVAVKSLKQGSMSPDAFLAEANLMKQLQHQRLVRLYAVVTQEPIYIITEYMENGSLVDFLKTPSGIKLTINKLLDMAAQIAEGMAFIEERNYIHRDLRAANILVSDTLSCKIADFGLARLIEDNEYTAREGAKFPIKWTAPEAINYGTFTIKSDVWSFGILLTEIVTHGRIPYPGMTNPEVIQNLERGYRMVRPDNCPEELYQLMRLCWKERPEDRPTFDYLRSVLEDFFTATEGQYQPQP
compound,measurement,setting,value
C#CCOc1ccc(Nc2ncc(Cl)c(Nc3ccccc3NC(=O)C=C)n2)c(OC)c1 [Compound 6],inhibition at 1 µM,CDK9/cyclin T1; [3],16%
same,Inhibition at 1 µM (%),"CDK9/cyclin T1; CDK9/cyclin T1, 1 µM, Adapta, ATP Km app, listed as WEL028, 1 µM",12%
same,inhibition at 1 µM,"CDK9/cyclin T1; read-out: Inhibition at 1 µM (%), CDK9/cyclin T1, 1 µM, Adapta, ATP Km app",20%
same,inhibition at 1 µM,CSF1R (FMS); [3],11%
same,Inhibition at 1 µM (%),"CSF1R (FMS); CSF1R (FMS), 1 µM, ZLYTE, ATP Km app, listed as WEL028, 1 µM",8%
same,inhibition at 1 µM,"CSF1R (FMS); read-out: Inhibition at 1 µM (%), CSF1R (FMS), 1 µM, ZLYTE, ATP Km app",13%
same,inhibition at 1 µM,GRK6; 1 h,0%
same,inhibition at 1 µM,GRK6; read-out: Inhibition at 1 µM (%),0%
same,Inhibition (%),JAK2,0%
same,inhibition at 1 µM,LCK; [3],5%
same,Inhibition at 1 µM (%),"LCK; LCK, 1 µM, ZLYTE, ATP Km app, listed as WEL028, 1 µM",6%
same,inhibition at 1 µM,"LCK; read-out: Inhibition at 1 µM (%), LCK, 1 µM, ZLYTE, ATP Km app",4%
same,inhibition at 1 µM,LRRK2 FL; [3],97%
same,inhibition at 10 µM,"LRRK2 FL; 1 h, log[inhibitor] (M) -5.00, Adapta, ATP Km app",100%
same,inhibition at 3.311 µM,"LRRK2 FL; 1 h, log[inhibitor] (M) -5.48, Adapta, ATP Km app",100%
same,inhibition at 1.122 µM,"LRRK2 FL; 1 h, log[inhibitor] (M) -5.95, Adapta, ATP Km app",100%
same,inhibition at 0.3715 µM,"LRRK2 FL; 1 h, log[inhibitor] (M) -6.43, Adapta, ATP Km app",100%
same,inhibition at 0.123 µM,"LRRK2 FL; 1 h, log[inhibitor] (M) -6.91, Adapta, ATP Km app",86%
same,inhibition at 0.04074 µM,"LRRK2 FL; 1 h, log[inhibitor] (M) -7.39, Adapta, ATP Km app",39%
same,Inhibition at 1 µM (%),"LRRK2 FL; LRRK2 FL, 1 µM, Adapta, ATP Km app, listed as WEL028, 1 µM",96%
same,inhibition at 1 µM,"LRRK2 FL; read-out: Inhibition at 1 µM (%), LRRK2 FL, 1 µM, Adapta, ATP Km app",98%
same,inhibition at 1 µM,MAP3K19 (YSK4); [3],0%
same,Inhibition at 1 µM (%),"MAP3K19 (YSK4); MAP3K19 (YSK4), 1 µM, ZLYTE, ATP Km app, listed as WEL028, 1 µM",-1% and 1%
same,IC50,MAP3K8 (COT) [1],251 nM
same,inhibition at 1 µM,MAP3K8 (COT) [1]; [3],77%
same,inhibition at 10 µM,"MAP3K8 (COT) [1]; 1 h, log[inhibitor] (M) -5.00, ZLYTE, ATP 100",100%
same,inhibition at 3.311 µM,"MAP3K8 (COT) [1]; 1 h, log[inhibitor] (M) -5.48, ZLYTE, ATP 100",101%
same,inhibition at 1.122 µM,"MAP3K8 (COT) [1]; 1 h, log[inhibitor] (M) -5.95, ZLYTE, ATP 100",95%
same,inhibition at 0.3715 µM,"MAP3K8 (COT) [1]; 1 h, log[inhibitor] (M) -6.43, ZLYTE, ATP 100",67%
same,inhibition at 0.123 µM,"MAP3K8 (COT) [1]; 1 h, log[inhibitor] (M) -6.91, ZLYTE, ATP 100",46%
same,inhibition at 0.04074 µM,"MAP3K8 (COT) [1]; 1 h, log[inhibitor] (M) -7.39, ZLYTE, ATP 100",34%
same,inhibition at 0.0138 µM,"MAP3K8 (COT) [1]; 1 h, log[inhibitor] (M) -7.86, ZLYTE, ATP 100",24%
same,inhibition at 0.001514 µM,"MAP3K8 (COT) [1]; 1 h, log[inhibitor] (M) -8.82, ZLYTE, ATP 100",15%
same,inhibition at 0.0004898 µM,"MAP3K8 (COT) [1]; 1 h, log[inhibitor] (M) -9.31, ZLYTE, ATP 100",17%
same,inhibition at 0.004571 µM,"MAP3K8 (COT) [1]; 1 h, log[inhibitor] (M) -[…], ZLYTE, ATP 100",17%
same,Inhibition at 1 µM (%),"MAP3K8 (COT) [1]; MAP3K8 (COT), 1 µM, ZLYTE, ATP 100, listed as WEL028, 1 µM",82%
same,inhibition at 1 µM,"MAP3K8 (COT) [1]; read-out: Inhibition at 1 µM (%), MAP3K8 (COT), 1 µM, ZLYTE, ATP 100",73%
same,Apparent fold selectivity,MAP3K8 (COT) [2],57 fold
same,inhibition at 1 µM,MAP4K4 (HGK),7%
same,inhibition at 1 µM,MUSK; [3],26%
same,Inhibition at 1 µM (%),"MUSK; MUSK, 1 µM, ZLYTE, ATP Km app, listed as WEL028, 1 µM",33%
same,inhibition at 1 µM,"MUSK; read-out: Inhibition at 1 µM (%), MUSK, 1 µM, ZLYTE, ATP Km app",19%
same,inhibition at 1 µM,PIK3C2A (PI3K-C2 alpha),5%
same,inhibition at 1 µM,PKN2 (PRK2); [3],8%
same,Inhibition at 1 µM (%),"PKN2 (PRK2); PKN2 (PRK2), 1 µM, LanthaScreen Binding, listed as WEL028, 1 µM",9%
same,inhibition at 1 µM,"PKN2 (PRK2); read-out: Inhibition at 1 µM (%), PKN2 (PRK2), 1 µM, LanthaScreen Binding",6%
same,inhibition at 1 µM,PRKACA (PKA); [3],2%
same,Inhibition at 1 µM (%),"PRKACA (PKA); PRKACA (PKA), 1 µM, ZLYTE, ATP Km app, listed as WEL028, 1 µM",4% and -1%
same,Inhibition at 1 µM (%),"RPS6KB1 (p70S6K); 1 µM, ZLYTE, ATP Km app",15%
same,inhibition at 1 µM,RPS6KB1 (p70S6K); [3],4%
same,Inhibition at 1 µM (%),"WEE1; 1 µM, LanthaScreen Binding",-14%
same,inhibition at 1 µM,WEE1; [3],-5%
same,inhibition at 0.1 µM,~150 kDa protein,~80%
same,IC80,"FES^S700C; concentration used for dialysis, 30 min, rt",231 nM
same,"Relative FES labeling (% of vehicle), Pre-dialysis","FES^S700C; inhibitor at IC80, WEL033 250 nM, replicates, listed as WEL028",2.76% and 2.085% and 2.269%
same,"Relative FES labeling (% of vehicle), Post-dialysis","FES^S700C; overnight dialysis at 4 °C, WEL033 250 nM, replicates, listed as WEL028",10.52% and 32.8765% and 11.5588%
